Test results: patent publication US10954549B2, “Detection and classification of an anticoagulant using a clotting assay” (Haemonetics Corporation, priority 2014, dated 2021)

Assays:
citrated whole blood = assay: TEG Kaolin test of blood spiked with anticoagulant; format: biochemical, human; details: for R value versus control reference range: reference range about 5 to about 10 minutes; for MA values versus control: all studied concentrations; for R, K, α, and MRTG parameters, statistical significance versus control: three concentrations per drug, Example 1; for MRTG / TMRTG: Kaolin
Excerpt: The TEG clotting assay was used to determine if low, normal, and high doses of dabigatran, rivaroxaban, and apixaban could be detected in blood spiked with these compounds. Three oral anticoagulants (OAC), namely dabigatran, rivaroxaban, and apixaban, were spiked into blood obtained from 14 healthy volunteer human donors. For each OAC tested, citrated blood from three donors was spiked with three different concentrations of the active drug (i.e., the compound). The spiked blood samples and control samples spiked with diluent were tested with the TEG® 5000 Thrombelastograph® Hemostasis Analyzer (Haemonetics Corporation, Braintree, Mass., USA) using the Kaolin and RapidTEG® reagents (Haemonetics). Each sample was run in triplicate. All samples were tested with and without ecarin (purchased from Enzyme Research Laboratories, South Bend, IN). This study was IRB approved and all donors were over 18 and signed informed consent forms.
Dabigatran stock was prepared from the active dabigatran moiety (Alsachim, France) by dissolution in 0.1M HCl and further dilution in 1:1 DMSO:H20. […] Tubes of citrated blood were spiked with this dabigatran stock to create final concentrations of 500, 200, and 50 ng/mL of citrated whole blood.
Rivaroxaban stock was prepared by agitation of a 20 mg Xarelto tablet (Jannsen, Titusville, N.J.) in a 1:1 DMSO: H20 solution, which was diluted to a final concentration of 20 ng/uL rivaroxaban in 1:1 DMSO:H20. Tubes of citrated blood were spiked with this rivaroxaban stock to create final concentrations of 500, 89, and 22 ng/mL in citrated whole blood. […] Apixaban stock was prepared in a similar manner from a 2.5 mg Eliquis tablet (Bristol-Myers Squibb, New York, N.Y.), with final concentrations of 1000, 500, and 250 ng/mL in whole blood. Apixaban is approved for prevention of VTE in elective hip or knee replacement surgery (2.5 mg BID) and for prevention of stroke and systemic embolism in patients with non-valvular AF (5 mg BID) (see Bristol-Myers SP, EEIG. apixaban summary of product characteristics). […] Control samples, prepared for each tested drug, included a solvent control containing only citrated blood and the diluent used to dilute the drug stock, and an unadulterated citrate blood tube.
Testing was performed on TEG-5000 analyzers (Haemonetics Corp., Braintree, Mass., USA) using Kaolin vials, 0.2M CaCl2, RapidTEG (rTEG) vials, diluent water, and disposable clear cups and pins provided by the manufacturer (Haemonetics, Braintree, Mass.), and ecarin (Enzyme Research Laboratories, South Bend, Ind.). All testing was performed in triplicate at each dose, and allowed to continue until the MA (maximum amplitude) parameter defined. The various components of the TEG tracing are depicted in FIG. 3A. The Kaolin test generates an R parameter, which is measured in minutes, and is the time elapsed from the initiation of the test until the point where the onset of clotting provides enough resistance to produce a 2 mm amplitude reading on the TEG tracing. This parameter represents the initiation phase of coagulation related to the function of enzymatic clotting factors. The R parameter has a normal range of 5 to 10 min for kaolin. A prolonged R time indicates slower clot formation. K is a measurement of the time interval from the split point to the point where fibrin cross-linking provides enough clot resistance to produce a 20 mm amplitude reading. The α angle is the angle formed by the slope of a tangent line traced from the R to the K time and a central line measured in degrees. K time and the α angle denote the rate at which the clot strengthens, and is representative of thrombin's cleaving of the available fibrinogen into fibrin. The MA indicates the point at which clot strength reaches its maximum amplitude, measured in millimeters on the TEG tracing, and reflects the end result of maximal platelet-fibrin interaction via the GPIIb-IIIa receptors (see Khurana S et al., J Lab Clin Med. 130:401-411, 1997). […]

[1] = tested on: blood from healthy volunteers; assay: Thromboelastography R time of spiked blood in the presence of the ecarin reagent; format: biochemical, human
Protocol: Blood from healthy volunteers known not to be taking any oral anticoagulant and without any other significant health issues are analyzed using the FXa or the Ecarin reagent in a TEG® hemostasis analyzer.
The ecarin reagent is used to classify the type of anticoagulant. The R-time from the Ecarin assay is used to differentiate between the two available classes (Direct thrombin inhibitors and anti-Xa inhibitors). This ecarin reagent may be used in combination with the results from the FXa reagent to make a decision. A reference range will be generated from a sample healthy volunteer population (not on any drug) for this reagent.
The R-time generated from multiple donors was used to construct a reference range. Blood was spiked with either direct thrombin inhibitors or anti-Xa(s) at different concentrations and analyzed using the FXa reagent or the Ecarin reagent. The drug concentrations chosen represent the published therapeutic ranges for these two classes of drugs. This assay was repeated in multiple donors to account for possible donor variations.
The R time (in minutes) was compared to the R time obtained from donor blood with no oral anticoagulant (who is known not to be administered with an anticoagulant) treated with the ecarin reagent and measured using thromboelastography.
The R time (in minutes) was compared to the R time obtained from donor blood with no oral anticoagulant (i.e., taken from a patient who is known not to be administered with an anticoagulant) treated with the ecarin reagent and measured using thromboelastography.

[2] = tested on: blood from a single human volunteer; assay: Classification time (R time with ecarin) in volunteer blood before and after oral anticoagulant; format: in vivo; details: 2 hours 30 minutes after 20 mg oral
Protocol: Blood from a single human volunteer was analyzed using thromboelastography with Factor Xa and ecarin before and after the volunteer was orally administered an anticoagulant.
For these studies, the normal ranges for the particular reagent (i.e., Factor Xa or ecarin) were determined using multiple donors known not to be taking any anticoagulant.
The human volunteer was known not to be taking (i.e., was not being administered) an anticoagulant. In this example, blood was taken from the volunteer before the volunteer was administered any anticoagulant. This is the “before” blood component sample. The volunteer was orally administered 20 mg rivaroxaban, an anti-Factor Xa anticoagulant. Two hours and thirty minutes after oral administration of the rivaroxaban, blood was drawn again from the volunteer. This is the “after” blood component sample.
The “before” and “after” samples were analyzed using thromboelastography in the presence of Factor Xa or in the presence of ecarin. When the R time is determined in the presence of Factor Xa, that time is called the detection time. When the R time is determined in the presence of ecarin, that time is called the classification time.

porcine plasma = assay: TEG 6S DTI channel R-time, porcine experimental trauma model; format: in vivo; details: pre and post trauma; baseline 3.4±0.6 min
Protocol: The TEG®6S system (Haemonetics Corp., Braintree, Mass.) is based on viscoelasticity measurements using resonance frequency and disposable multi-channel microfluidic cartridges. Blood and plasma from healthy volunteers were spiked with dabigatran in the therapeutic range (in increasing concentrations) and tested with an OAC cartridge with an ecarin based, direct thrombin inhibitor (DTI) channel. This channel was also evaluated with porcine plasma from an experimental trauma model (n=6) where dabigatran levels were measured with dilute TT (Hemoclot®). TEG 6s R-time (reaction time) was correlated to the drug levels.

[3] = blood spiked with 50 ng/ml dabigatran
[4] = blood spiked with 200 ng/ml dabigatran
[5] = blood spiked with 500 ng/ml dabigatran

Molecule: O=C(NC[C@H]1CN(c2ccc(N3CCOCC3=O)cc2)C(=O)O1)c1ccc(Cl)s1 [rivaroxaban, Rivaroxaban]
- R value versus control reference range (citrated whole blood; 500 ng/ml (highest dosage)): outside of the normal (i.e., control) reference range
- MA values versus control (citrated whole blood): did not change
- R time versus non-spiked blood sample (citrated whole blood; highest concentration tested): significantly higher
- R value versus control reference range (citrated whole blood; lower two doses (22 and 89 ng/ml)): within the control reference range
- R, K, α, and MRTG parameters, statistical significance versus control (citrated whole blood): only achieved statistical significance for the higher concentrations
- R time versus reference range of approximately 1 to 4.1 minutes ([1]; 50-350 ng/ml, ecarin): within the reference range
- R of "after" blood versus Ecarin reference range (approximately 4.1 minutes upper boundary) [2]: within the Ecarin reference range

Molecule: dabigatran
- R value versus control reference range (citrated whole blood; 50 ng/ml (lowest dosage)): outside of the normal (i.e., control) reference range
- R value, dose dependence (citrated whole blood; 50, 200, 500 ng/ml): increases the R value of the tested blood components in a dose dependent manner
- R, α, and TMRTG parameters between concentrations (citrated whole blood; 500, 200, 50 ng/mL): significantly different between all concentrations
- R time versus non-spiked blood sample (citrated whole blood; all doses): significantly higher
- MA values versus control (citrated whole blood): did not change
- MRTG (citrated whole blood; [3]): 13 mm/min
- TMRTG (citrated whole blood; [3]): 13 min
- MRTG (citrated whole blood; [4]): 12 mm/min
- TMRTG (citrated whole blood; [4]): 18 min
- MRTG (citrated whole blood; [5]): 7 mm/min
- TMRTG (citrated whole blood; [5]): 22 min
- R, K, α, and MRTG parameters, statistical significance versus control (citrated whole blood): able to detect the presence of all tested concentrations
- R time versus untreated R time of unspiked donor blood ([1]; 50 ng/ml, donor 126, ecarin reagent): two times longer
- R time relative to the reference range of 3.1 minutes ([1]; 50 ng/ml, donors 117, 127, and 146, ecarin): at least 1.25 times
- R time relative to the collective reference range of 3.1 minutes ([1]; 150 ng/ml, all four donors, ecarin): at least 1.25 times
- R-time following administration (porcine plasma): ≥ 21 ± 5.9 min
